Reference: paper PMC9311798, “A Novel Class of Potent Anti-Tyrosinase Compounds with Antioxidant Activity, 2-(Substituted phenyl)-5-(trifluoromethyl)benzo[d]thiazoles: In Vitro and In Silico Insights” (Antioxidants, 2022)

What was measured:
mushroom tyrosinase = target: T1, mushroom tyrosinase (Agaricus bisporus, UniProt C7FF04); experiment: Mushroom tyrosinase inhibition assay; assay type: biochemical; settings: L-tyrosine as substrate
T1 construct: purchased Sigma-Aldrich
Protocol: Mushroom tyrosinase inhibitory activity was determined as described previously, with minor modifications. L-Tyrosine was used as a substrate to determine enzyme activities. […] These dose-dependent inhibition experiments were carried out three times using three to five different concentrations of test compounds to determine IC50 values. Log–linear curves and their equations were derived from the observed percentages of inhibition.

[1] = ABTS radical scavenging activity assay; settings: 100 µM, 2 min in the dark; for ABTS free radical scavenged (%): 734 nm
Protocol: At 734 nm, optical densities of the solutions were measured using a microplate reader (VersaMax^TM, Molecular Devices, Sunnyvale, CA, USA). The ABTS radical scavenging capacities of the 16 2-arylbenzothiazole derivatives were compared with trolox. All experiments were performed independently in triplicate.

[2] = DPPH radical scavenging activity assay; settings: compound 1.0 mM, 30 min in the dark, 517 nm
Protocol: The DPPH (2,2-diphenyl-1-picrylhydrazyl) scavenging activities of synthesized compounds 1a–1p were investigated as previously described, with minor modifications. A dimethyl sulfoxide solution (20 µL) containing 10 mM of each compound was mixed with DPPH methanol solution (0.2 mM, 180 µL) in the wells of a 96-well plate, and placed in the dark for 30 min at room temperature. At 517 nm, optical densities were measured using a microplate reader (VersaMax^TM, Molecular Devices, Sunnyvale, CA, USA). The DPPH radical scavenging ability of the 2-arylbenzothiazole derivatives was compared with that of L-ascorbic acid, the positive control. All experiments were performed independently in triplicate.

[3] = test system: intracellular ROS in B16F10 cells; experiment: Intracellular ROS scavenging (DCFH-DA assay, SIN-1 induced); assay type: cell-based, murine; settings: 20 µM, SIN-1 10 µM, trolox 20 µM positive control
Protocol: Intracellular ROS scavenging evaluation was performed as reported by Ali et al. and Lebel and Bondy. ROS generation was assessed using the ROS-sensitive fluorescence indicator DCFH-DA. Briefly, B16F10 cells were seeded in 96-well black plates (1 × 10^4 cell/well), incubated for 24 h, treated with compounds 1a–1p (20 µM in DMSO) for 2 h, stimulated with 10 µL of SIN-1 (100 µM in 50 mM sodium phosphate buffer, pH 7.4) for 1 h to induce ROS production, and then incubated with DCFH-DA (20 µM) for 30 min at 37 °C. Fluorescence was measured for 30 min at 5 min intervals at an excitation wavelength of 485 nm and emission wavelength of 535 nm, using a Berthold microplate reader (Berthold Technologies GmbH &Co., Wien, Austria).

T1 sequence (C7FF04 1-392 limits assumed): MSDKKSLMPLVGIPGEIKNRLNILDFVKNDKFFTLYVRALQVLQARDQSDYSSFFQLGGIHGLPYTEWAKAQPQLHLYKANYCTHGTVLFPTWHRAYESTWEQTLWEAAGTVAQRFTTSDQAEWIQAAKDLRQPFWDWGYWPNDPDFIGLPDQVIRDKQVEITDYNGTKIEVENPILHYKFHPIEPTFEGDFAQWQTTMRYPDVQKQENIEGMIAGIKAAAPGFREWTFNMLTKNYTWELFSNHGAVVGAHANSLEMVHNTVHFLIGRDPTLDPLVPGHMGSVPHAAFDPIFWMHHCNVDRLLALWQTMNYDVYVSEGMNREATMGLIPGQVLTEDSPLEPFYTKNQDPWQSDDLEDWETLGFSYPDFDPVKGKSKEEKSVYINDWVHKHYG

melting point [°C]	IC50 (mushroom tyrosinase) [µM]	SMILES	ABTS radical scavenging activity (in words) [1]	ABTS free radical scavenged (%) [1] [%]	DPPH radical scavenging activity [2]	intracellular ROS scavenging [3]
117 to 117.8	> 300	CCOc1cc(-c2nc3cc(C(F)(F)F)ccc3s2)ccc1O [Compound 1e, 2-Ethoxy-4-(5-(trifluoromethyl)benzo[d]thiazol-2-yl)phenol]				
175 to 176.5	> 300	Oc1ccccc1-c1nc2cc(C(F)(F)F)ccc2s1 [Compound 1g, 2-(5-(Trifluoromethyl)benzo[d]thiazol-2-yl)phenol]				scavenged intracellular ROS to a similar extent to trolox
140.4 to 141.6	> 300	COc1ccc(-c2nc3cc(C(F)(F)F)ccc3s2)c(OC)c1 [Compound 1i, 2-(2,4-Dimethoxyphenyl)-5-(trifluoromethyl)benzo[d]thiazole]				
120.4 to 121.6	264 ± 56.6	COc1ccc(-c2nc3cc(C(F)(F)F)ccc3s2)cc1OC [Compound 1j, 2-(3,4-Dimethoxyphenyl)-5-(trifluoromethyl)benzo[d]thiazole]				
	129 ± 19.8	Cc1cc(-c2nc3cc(C(F)(F)F)ccc3s2)cc(C)c1O [Compound 1m, 2,6-Dimethyl-4-(5-(trifluoromethyl)benzo[d]thiazol-2-yl)phenol]			moderate DPPH radical scavenging efficacy	
256.7 to 260.6	217 ± 32.7	Oc1cc(O)cc(-c2nc3cc(C(F)(F)F)ccc3s2)c1 [Compound 1n, 5-(5-(Trifluoromethyl)benzo[d]thiazol-2-yl)benzene-1,3-diol]	potently scavenged the ABTS radical		moderate DPPH radical scavenging efficacy	scavenged intracellular ROS to a similar extent to trolox
	> 300	Oc1c(Br)cc(-c2nc3cc(C(F)(F)F)ccc3s2)cc1Br [Compound 1o, 2,6-Dibromo-4-(5-(trifluoromethyl)benzo[d]thiazol-2-yl)phenol]				
	102 ± 12.4	Oc1ccc(-c2nc3cc(C(F)(F)F)ccc3s2)cc1Br [Compound 1p, 2-Bromo-4-(5-(trifluoromethyl)benzo[d]thiazol-2-yl)phenol]				scavenged intracellular ROS to a similar extent to trolox

Continued, molecule first:

SMILES	melting point [°C]	IC50 (mushroom tyrosinase) [µM]	ABTS radical scavenging activity (in words) [1]	ABTS free radical scavenged (%) [1] [%]	DPPH radical scavenging activity [2]	intracellular ROS scavenging [3]
Oc1ccc(-c2nc3cc(C(F)(F)F)ccc3s2)cc1O [Compound 1c, 4-(5-(Trifluoromethyl)benzo[d]thiazol-2-yl)benzene-1,2-diol]	267.3 to 269.4	> 300	potently scavenged the ABTS radical	92.4	greatest DPPH radical scavenging activity (comparable to L-ascorbic acid)	scavenged intracellular ROS far more potently than trolox
COc1cc(-c2nc3cc(C(F)(F)F)ccc3s2)ccc1O [Compound 1d, 2-Methoxy-4-(5-(trifluoromethyl)benzo[d]thiazol-2-yl)phenol]	155.7 to 159.9	291 ± 63.8			moderate DPPH radical scavenging efficacy	
COc1ccc(-c2nc3cc(C(F)(F)F)ccc3s2)cc1O [Compound 1f, 2-Methoxy-5-(5-(trifluoromethyl)benzo[d]thiazol-2-yl)phenol]	142.1 to 144.5	> 300			moderate DPPH radical scavenging efficacy	
COc1ccc(-c2nc3cc(C(F)(F)F)ccc3s2)cc1 [Compound 1h, 2-(4-Methoxyphenyl)-5-(trifluoromethyl)benzo[d]thiazole]	128.8 to 130.1	> 300				
COc1cc(-c2nc3cc(C(F)(F)F)ccc3s2)cc(OC)c1OC [Compound 1k, 5-(Trifluoromethyl)-2-(3,4,5-trimethoxyphenyl)benzo[d]thiazole]	132.5 to 134	> 300				
COc1cc(-c2nc3cc(C(F)(F)F)ccc3s2)cc(OC)c1O [Compound 1l, 2,6-Dimethoxy-4-(5-(trifluoromethyl)benzo[d]thiazol-2-yl)phenol]	220.6 to 222.6	> 300			moderate DPPH radical scavenging efficacy	
Cc1c(C)c2c(c(C)c1O)CCC(C)(C(=O)O)O2 (stereo not drawn) [trolox, 6-hydroxy-2,5,7,8-tetramethylchroman-2-carboxylic acid, reference compound]				98.9		
